Reference: patent US12286452B2, “Amphiphilic aminoglycoside connexin hemichannel inhibitors” (Texas Tech University System, priority 2018, dated 2025)
Like-named read-outs stand apart in the source and are kept apart here.

Experiments:
[1] = target: T1, human Cx26 HCs (Homo sapiens, UniProt P29033); experiment: Cx26-dependent growth complementation assay in E. coli LB2003; format: cell-based
T1 construct: expressed in transfected cells; host or cells: E. coli LB2003 (carrying pREP4), transformed with pQE-Cx26, IPTG-induced
Protocol: These derivatives were prepared by sequential benzylation and methylation followed by reduction of azido groups or hydrogenolysis of the Bn. […] Connexin HC inhibition was conducted using a bacteria-based assay of HC function^39. In this assay, Cx26 HCs are expressed in E. coli LB2003 cells, which lack three major K^+ uptake systems (Kdp, Kup and Trk), and as a result they cannot grow in low-[K^+] media^39-41. However, growth of this E. coli strain in low-[K^+] medium can be rescued by expression of K^+-permeable channels such as connexin HCs^39, 42-43. Under the conditions of the assay (LB2003 cells expressing HCs and grown in low-K^+ medium), inhibition of the HCs reduces or abolishes growth^39, 42-43. This is a simple assay where bacterial growth in multi-well plates can be followed by measuring the absorbance at 600 nm (OD600)^29.
LB2003 cells generously provided by Dr. E. P. Bakker (Osnabruk University, Osnabruk, Germany) were transformed with the plasmid pQE-Cx26 (human Cx26 into pQE60) and pREP4. […] LB2003 cells cannot grow in low-[K^+] media because of insufficient K^+ uptake for growth due to the knockout of three key K^+ transporters (Atrk, Akup, Akdp strain)^2-4. Details and validation of the growth complementation assay have been published recently^2. In brief, competent LB2003 containing the pREP4 plasmid were transformed with pQE-Cx26. These cells were grown overnight in Luria-Bertani medium (BD, Franklin Lakes, NJ, USA) supplemented with 100 mM KCl (to allow growth) and 0.4 mg/mL ampicillin, and then washed four times with NLM (see below), to remove residual K^+ from the Luria-Bertani medium. The washed cells were resuspended in complementation growth medium to an OD600 of 0.2. NLM contained 46 mM Na2HPO4, 23 mM NaH2PO4, 8 mM (NH4)2SO4, 0.4 mM MgSO4, 0.012 mM FeSO4, 1 mM sodium citrate, 44 mM glucose and 0.006 mM thiamine hydrochloride, pH 7.0. KLM had the same composition that NLM except for the equimolar replacement of Na^+ with K^+. For growth complementation we used NLM+4 mM KCl, and Cx26 expression was induced with 0.5 mM IPTG at the time of dilution to OD600=0.2. For the assay, the cells were seeded in 96-well plates and were incubated at 30° C., with shaking at 500 rpm. OD600 was measured after 18-h incubation in a plate reader. The initial OD600=0.2 was subtracted for growth calculations. Data are presented as means±SEM. Statistically significant differences were calculated by the Student t-test for unpaired data. Data were obtained from at least 3 independent experiments, with 3 repeats per experiment.

[2] = target: T2, Cx43 HCs (Homo sapiens, UniProt P17302); experiment: Cx43-dependent growth complementation assay in E. coli LB2003; format: cell-based; details: for Cx43/Cx26 Selectivity: IC50 Cx26/IC50 Cx43
T2 construct: expressed in transfected cells
T2 sequence (P17302 whole entry): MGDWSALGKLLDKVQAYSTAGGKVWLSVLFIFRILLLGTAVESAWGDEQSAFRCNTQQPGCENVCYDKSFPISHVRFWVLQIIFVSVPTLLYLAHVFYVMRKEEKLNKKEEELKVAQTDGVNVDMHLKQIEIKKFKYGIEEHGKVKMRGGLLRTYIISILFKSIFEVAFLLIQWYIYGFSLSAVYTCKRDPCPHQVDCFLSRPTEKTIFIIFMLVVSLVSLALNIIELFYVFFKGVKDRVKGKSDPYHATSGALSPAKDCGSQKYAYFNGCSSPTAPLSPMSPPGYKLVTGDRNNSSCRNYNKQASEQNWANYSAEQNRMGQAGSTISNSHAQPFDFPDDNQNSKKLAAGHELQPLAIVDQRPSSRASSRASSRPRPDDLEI

[3] = 4″,6″-disubstituted AKs, Table 5, read-out: Cx26 IC50
[4] = K46 members, the 20th table, read-out: IC50 (μM) against Cx26
[5] = read-out: IC50, inhibition of Cx26 by kanamycin A and synthetic AGs, first Table 1
[6] = 4″,6″-disubstituted AKs, Table 5, read-out: Cx43 IC50
[7] = K46 members, the 20th table, read-out: IC50 (μM) against Cx43
[8] = the 13th table, read-out: Cx43 IC50
[9] = first Table 2, read-out: IC50, inhibition of Cx26 by synthetic AGs

CCCCOCC1OC(OC2C(N)CC(N)C(OC3OC(CN)C(O)C(O)C3O)C2O)C(O)C(N)C1OCCCC (stereo not drawn) [Compound 2]
IC50 [1, 3]: 19 ± 2 µM
IC50 [1, 4]: 19 ± 2.8 µM
IC50 [1, 5]: 19 ± 2.8 µM

CCCCCCOC[C@H]1O[C@H](O[C@@H]2[C@@H](O)[C@H](O[C@H]3O[C@H](CN)[C@@H](O)[C@H](O)[C@H]3O)[C@@H](N)C[C@H]2N)[C@H](O)[C@@H](N)[C@@H]1OCCCCCC [Compound 3]
IC50 [1, 3]: 6.2 ± 1.4 µM
IC50 [1, 4]: 6.2 ± 1.4 µM
IC50 [1, 5]: 6.2 ± 1.4 µM

CCCCCCO[C@H]1[C@H](N)[C@@H](O)[C@@H](O[C@@H]2[C@@H](O)[C@H](O[C@H]3O[C@H](CN)[C@@H](O)[C@H](O)[C@H]3O)[C@@H](N)C[C@H]2N)O[C@@H]1CO [Compound 4]
IC50 ([1]; first Table 1): 13.5 ± 1.8 µM

CCCCCCCCOC[C@H]1OC(O[C@@H]2C(N)CC(N)C(O[C@H]3OC(CN)[C@@H](O)[C@H](O)C3O)[C@@H]2O)[C@H](O)[C@H](N)C1OCCCCCCCC (stereo partly drawn) [Compound 5]
IC50 [2, 6]: 11.4 ± 4.3 µM
Cx43/Cx26 Selectivity ([2]; Table 5): 1.19
IC50 [2, 7]: 26.6 ± 7.8 µM
Cx43 Imax ([2]; the 13th table): 119 ± 8%
IC50 [2, 8]: 11.4 ± 4.3 µM
IC50 [1, 3]: 13.6 ± 0.5 µM
IC50 [1, 4]: 13.6 ± 0.5 µM
IC50 [1, 5]: 13.6 ± 0.5 µM
Cx26 Imax ([1]; the 13th table): 94 ± 2%
IC50 ([1]; the 13th table, read-out: Cx26 IC50): 13.5 ± 0.5 µM

CCCCCCCCCOC[C@H]1O[C@H](O[C@H]2[C@H](O)[C@@H](O[C@H]3O[C@H](CN)[C@@H](O)[C@H](O)[C@H]3O)[C@H](N)C[C@@H]2N)[C@H](O)[C@@H](N)[C@@H]1OCCCCCCCCC [Compound 6]
IC50 [1, 3]: 18.8 ± 1.3 µM
IC50 [1, 4]: 18.8 ± 1.3 µM
IC50 [1, 5]: 18.8 ± 1.3 µM

COC1C(OC2C(N)CC(N)C(OC3OC(CN)C(OC)C(OC)C3OC)C2OC)OC(COCc2ccccc2)C(OCc2ccccc2)C1N (stereo not drawn) [Compound 8, 5, 2′, 3′, 4′, 2″-Penta-O-methyl-4″,6″-di-O-benzylkanamycin]
IC50 [1, 4]: 8.4 ± 1.4 µM
IC50 [1, 5]: 8.4 ± 1.4 µM

COC1C(OC2C(N)CC(N)C(OC3OC(CN)C(OC)C(OC)C3OC)C2OC)OC(CO)C(O)C1N (stereo not drawn) [Compound 9, 5, 2′, 3′, 4′, 2″-Penta-O-methyl-kanamycin]
inhibition of Cx26 HCs (in words) [1]: lack of inhibitory activity
IC50, inhibition of Cx26 by kanamycin A and synthetic AGs ([1]; first Table 1): No inhibition at 100 μM

COc1ccc(COCC2OC(OC3C(N)CC(N)C(OC4OC(CN)C(O)C(O)C4O)C3O)C(O)C(N)C2OCc2ccc(OC)cc2)cc1 (stereo not drawn) [Compound 10, 4″,6″-Di-O-(4-methoxybenzyl) kanamycin]
IC50 [2, 6]: 4.1 ± 1.5 µM
Cx43/Cx26 Selectivity ([2]; Table 5, listed as 2b): 3.17
IC50 [2, 7]: 4.1 ± 1.5 µM
IC50 ([2]; the 12th table, Hill fit, mean ± SEM, some n = 1, read-out: Cx43 IC50): 4.1 ± 1.5 µM
IC50 [1, 9]: 13 ± 0.7 µM

Cc1ccc(COCC2OC(OC3C(N)CC(N)C(OC4OC(CN)C(O)C(O)C4O)C3O)C(O)C(N)C2OCc2ccc(C)cc2)cc1 (stereo not drawn) [Compound 11, 4″,6″-Di-O-(4-methylbenzyl) kanamycin]
IC50 [2, 6]: 3.1 ± 0.9 µM
Cx43/Cx26 Selectivity ([2]; Table 5): 1.39
IC50 [2, 7]: 3.1 ± 0.9 µM
Cx43 Imax ([2]; the 13th table): 80.4 ± 6%
IC50 [2, 8]: 3.1 ± 0.9 µM
IC50 [1, 9]: 4.3 ± 0.4 µM
Cx26 Imax ([1]; the 13th table): 102 ± 3%
